Source: US10292385B2, “Method for supression of infection by plant virus” (priority 2014, dated 2019)

What was measured:
TYLCV = TYLCV infection suppression test on chemical-sprayed cherry tomatoes exposed to viruliferous adult sweetpotato whiteflies (Test Example 1); type: in vivo, tomato yellow leaf curl virus (TYLCV); settings: for Percentage of TYLCV infection suppressed, Determined value: cherry tomato, 16 plants, PCR and symptom after 30 days
From the text: Seedlings of cherry tomatoes (cultivar: ‘YellowPear’) were transferred to small pots and grown until 2- to 2.5-leaf stages. A chemical having been adjusted to a predetermined concentration by dilution was sprayed thereon in a sufficient amount (the amount was such that the chemical solution dripped from the leaves), and the plants on which the diluted chemical has been sprayed were dried under a shielded condition in a greenhouse. In an aluminum-made large test container (length×width×height =68×44×82 cm, the upper surface and four side surfaces thereof are present as mesh surfaces for aeration), 16 pots containing the chemical-sprayed cherry tomatoes were equally arranged, and installation stands for releasing adult sweetpotato whiteflies were arranged at two positions on a diagonal line in the container. Chemical-resistant adult sweetpotato whiteflies to chemicals such as organophosphorus insecticides, carbamate insecticides, synthetic pyrethroid insecticides, ecdysis regulating insecticides, and neonicotinoid insecticides (hereinafter, chemical resistant adult sweetpotato whiteflies is simply referred to as adult sweetpotato whiteflies) were released for 3 days to suck a cherry tomato for TYLCV acquisition, so that the whiteflies were acquired TYLCV. Note that the chemical-resistant sweetpotato whiteflies used were kindly provided from Kumamoto Agricultural Research Center. The cherry tomato leaves were cut out together with the adult sweetpotato whiteflies settled on the infected cherry tomato, and equally left on the two flying sources in the aluminum-made container. After the leaves wither up, the adult sweetpotato whiteflies spontaneously spread inside the test container. The adult sweetpotato whiteflies were equally scattered to the two flying sources such that the number of individuals released was approximately 1 or 2.5 per plant (e.g.: in the case where the number of the adult sweetpotato whitefly individuals is approximately 1 per plant, 8 whiteflies×2 positions=16 whiteflies in the test container). The release period was set to 7 days. In conducting the test, any test chemical was at a practical concentration. […]

adult whiteflies = test: Observation of adult whitefly survival after spraying compound A; type: in vivo, sweetpotato whiteflies; settings: one week after spraying
From the text: From the above, it is conceivable that the present invention greatly enhances the effect of suppressing plant virus infection attained by the compound A.

For “glycerin diacetomonolaurate [compound A]”, the “Percentage of TYLCV infection suppressed, Corrected value” (TYLCV; 1.0 whiteflies/plant, corrected with the untreatment of test plot 5) was “(50.0) %”, the “Percentage of TYLCV infection suppressed, Determined value” (TYLCV; chemical-resistant adult sweetpotato whiteflies released 1.0 whiteflies/plant for 7 days) was 62.5% and the “Percentage of TYLCV infection suppressed, Determined value” (TYLCV; chemical-resistant adult sweetpotato whiteflies released 2.5 whiteflies/plant for 7 days) was 50.0%. The “TYLCV infection suppressing effect (in words)” value (TYLCV; whiteflies released for 7 days on sprayed cherry tomato, corrected value compared with theoretical value) was “suppressed to some extent” and the “survival of adult whiteflies after spraying” value (adult whiteflies) was “adult whiteflies survived one week thereafter”.
